Test results from paper PMC5856591 (Cell chemical biology, 2018).

Tests used:
[1] = system: S. cerevisiae wildtype BY4743; experiment: growth-inhibitory potency on wildtype S. cerevisiae; conditions: Saccharomyces cerevisiae, read-out: IC50 [μM] S. cerevisiae wildtype, cell based growth assay, wildtype
Sec14p of C. albicans = Sec14p of C. albicans (Candida albicans, UniProt P46250); experiment: in vitro [3H]-PtdIns lipid transfer assay, C. albicans Sec14p; assay type: biochemical; conditions: for inhibition of PtdIns-transfer by C. albicans protein (in words): tested concentration range
Chain of Sec14p of C. albicans (P46250 whole entry): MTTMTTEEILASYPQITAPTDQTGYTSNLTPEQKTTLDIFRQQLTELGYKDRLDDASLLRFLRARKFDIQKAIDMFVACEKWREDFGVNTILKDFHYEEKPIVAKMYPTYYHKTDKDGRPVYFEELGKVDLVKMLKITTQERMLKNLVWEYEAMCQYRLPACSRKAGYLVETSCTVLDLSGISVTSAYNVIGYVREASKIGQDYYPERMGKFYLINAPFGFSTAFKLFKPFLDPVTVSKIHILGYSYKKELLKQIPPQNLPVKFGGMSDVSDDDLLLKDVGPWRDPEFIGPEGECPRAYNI

[2] = system: cki1 and kes1 “bypass Sec14p” mutants; experiment: spot growth assay of bypass Sec14p mutants; assay type: cell-based, Saccharomyces cerevisiae; conditions: 20 μM on agar plates
Sec14p = Sec14p (Saccharomyces cerevisiae, UniProt P24280); experiment: in vitro [3H]-PtdIns lipid transfer assay, recombinant Sec14p; assay type: biochemical, S. cerevisiae; conditions: for inhibition of Sec14p-mediated PtdIns-transfer (in words): 20 μM SMI end-point assay
Chain of Sec14p (P24280 whole entry): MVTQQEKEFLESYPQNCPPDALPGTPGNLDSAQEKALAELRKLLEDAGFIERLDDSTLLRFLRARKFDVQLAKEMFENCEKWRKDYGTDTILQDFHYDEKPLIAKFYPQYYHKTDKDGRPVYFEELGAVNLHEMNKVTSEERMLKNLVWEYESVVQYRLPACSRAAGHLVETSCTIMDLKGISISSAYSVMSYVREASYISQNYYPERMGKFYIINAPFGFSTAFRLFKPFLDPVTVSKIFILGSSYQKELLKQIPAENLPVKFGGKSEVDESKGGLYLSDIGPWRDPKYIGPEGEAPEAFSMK

[3] = kinetic aqueous solubility; assay type: physicochemical; conditions: pH 7.4
[4] = system: S. cerevisiae SEC14/sec14; experiment: growth assay with heterozygous SEC14 deletion strain; assay type: cell-based, Saccharomyces cerevisiae; conditions: for IC50: Saccharomyces cerevisiae, SEC14/SEC14, read-out: IC50 [μM] S. cerevisiae SEC14/sec14
PITPα = molecular target: T1, PITPα (Mus musculus, UniProt P53810); experiment: in vitro [3H]-PtdIns lipid transfer assay, mammalian PITPα; conditions: 20 μM
T1 sequence (P53810 1-271): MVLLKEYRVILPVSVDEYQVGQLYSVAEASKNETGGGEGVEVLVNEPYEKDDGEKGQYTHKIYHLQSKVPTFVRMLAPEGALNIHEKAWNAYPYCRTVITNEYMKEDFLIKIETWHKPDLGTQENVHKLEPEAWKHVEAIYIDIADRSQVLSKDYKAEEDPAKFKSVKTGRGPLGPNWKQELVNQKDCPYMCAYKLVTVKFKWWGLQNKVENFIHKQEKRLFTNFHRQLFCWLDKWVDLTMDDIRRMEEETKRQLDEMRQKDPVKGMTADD

HCT116 cells = experiment: CellTiter-Glo luminescent cell viability assay; assay type: cell-based; conditions: Homo sapiens, HCT-116, 72 h, read-out: IC50 [μM] HCT116
S. cerevisiae BY4743Δ8 [5] = experiment: growth assay, wildtype versus efflux-deficient wildtypeΔ8; assay type: cell-based, Saccharomyces cerevisiae; conditions: ratio of growth IC50 wildtype to wildtypeΔ8
Sec14p of C. glabrata = Sec14p of C. glabrata (Candida glabrata, UniProt P53989); experiment: in vitro [3H]-PtdIns lipid transfer assay, C. glabrata Sec14p; assay type: biochemical
Chain of Sec14p of C. glabrata (P53989 whole entry): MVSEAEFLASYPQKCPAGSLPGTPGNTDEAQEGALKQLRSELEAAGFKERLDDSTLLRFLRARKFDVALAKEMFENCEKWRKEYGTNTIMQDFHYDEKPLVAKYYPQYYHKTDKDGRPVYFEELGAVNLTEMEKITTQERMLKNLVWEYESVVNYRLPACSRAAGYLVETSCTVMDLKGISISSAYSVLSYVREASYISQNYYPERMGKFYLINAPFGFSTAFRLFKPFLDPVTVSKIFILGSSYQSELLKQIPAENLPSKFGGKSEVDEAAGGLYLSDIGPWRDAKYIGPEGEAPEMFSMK

[6] = system: mutant Sec14ps (Y151H, V154G, V155A, S173L, S201G); experiment: [3H]-PtdIns transfer assay with recombinant mutant Sec14ps; assay type: biochemical, S. cerevisiae; conditions: all mutant proteins but one
Sec14p^V155A = experiment: [3H]-PtdIns transfer assay with recombinant Sec14p V155A; assay type: biochemical, S. cerevisiae
S. cerevisiae BY4743Δ8 [7] = experiment: MIC on solid medium; assay type: cell-based, Saccharomyces cerevisiae; conditions: 72 hours, 30°C

| SMILES | IC50 [1] | IC50 (Sec14p of C. albicans) | inhibition of PtdIns-transfer by C. albicans protein (in words) (Sec14p of C. albicans) | growth of bypass Sec14p mutants under compound challenge (in words) [2] | IC50 (Sec14p) | inhibition of Sec14p-mediated PtdIns-transfer (in words) (Sec14p) | solubility in pure aqueous solutions (in words) [3] | fitness of SEC14/sec14Δ heterozygote relative to isogenic wildtype (in words) [4] | IC50 [4] | inhibition of PtdIns-transfer by mammalian PITPα (in words) (PITPα) | IC50 (HCT116 cells) | fold IC50 shift S. cerevisiae wildtype/wildtypeΔ8 (S. cerevisiae BY4743Δ8 [5]) | IC50 (Sec14p of C. glabrata) | sensitivity of mutant Sec14ps other than V155A (in words) [6] | increase in IC50 of Sec14p^V155A relative to wild-type Sec14p (Sec14p^V155A) | Minimal inhibitory concentration S. cerevisiae BY4743Δ8 (S. cerevisiae BY4743Δ8 [7]) |
| --- | --- | --- | --- | --- | --- | --- | --- | --- | --- | --- | --- | --- | --- | --- | --- | --- |
| O=C(NCc1ccc2c(c1)OCO2)c1ncc(Br)cc1F [Compound 2] | 28.5 µM | > 100 µM | did not inhibit | indifferent to challenge | 6.7 µM | clear inhibition | better solubility than compound 3 | decreased fitness | 9.4 µM | no such inhibitory effects | > 100 µM | 2.7x fold | 10.9 µM | – | – | – |
| O=C(NCc1ccc2c(c1)OCO2)c1ccc(Br)cc1F [Compound 3] | 7 µM | – | did not inhibit | indifferent to challenge | – | clear inhibition | – | decreased fitness | 1.7 µM | no such inhibitory effects | > 100 µM | 2.8x fold | – | essentially indifferent | 17 fold | – |
| CC[C@@H]([C@H](C)O)n1ncn(-c2ccc(N3CCN(c4ccc(OC[C@@H]5CO[C@@](Cn6cncn6)(c6ccc(F)cc6F)C5)cc4)CC3)cc2)c1=O [Posaconazole] | – | – | – | – | – | – | – | – | – | – | – | – | – | – | – | <0.3 µM |
